Earlier results in patent US20180280305A1 (Bayer HealthCare LLC, priority 2015, published 2018).

Conditions: pain conditions, non-prescription (OTC) setting

For COc1ccc2cc([C@H](C)C(=O)O)ccc2c1 [naproxen sodium], the lowest effective dose is listed as 220 mg.
